Values quoted from earlier work, collected in article PMC6832551, “An Antiviral Peptide from Alopecosa nagpag Spider Targets NS2B–NS3 Protease of Flaviviruses” (Toxins, 2019).
Structures can show the parent of a compound that is named as a salt.

System: ZIKV
From the text: Despite their differences in pathogeneses, DENV and ZIKV are representative, emerging mosquito-borne flaviviruses with similar replication cycles which infect millions of people annually. The non-structural proteins of flaviviruses are important for virus replication and assembly. It has been established that NS2B–NS3 forms the viral protease and NS3 alone serves as the dsRNA helicase. Recently, the NS2B–NS3 protease became an attractive antiviral target, and many of its inhibitors have been reported as potential antivirals. Protease inhibitors are ubiquito ...

## CC(C)C[C@H]1C(=O)N2CCC[C@H]2[C@]2(O)O[C@](NC(=O)[C@@H]3C=C4c5cccc6[nH]c(Br)c(c56)C[C@H]4N(C)C3)(C(C)C)C(=O)N12 [bromocriptine, Bromocriptine mesylate]
  ZIKV viral replication (in words): confirmed to inhibit ZIKV protease activity and viral replication
